Results: publication PMC2064570 (The Journal of Cell Biology, 2006)

Experiments:
TbPTP1 [1] = biological target: T1, TbPTP1 (Trypanosoma brucei, UniProt Q38AT7); assay: pNPP hydrolysis inhibition; format: biochemical; details: read-out: % inhibition at 10 μM
T1 sequence (Q38AT7 1-306): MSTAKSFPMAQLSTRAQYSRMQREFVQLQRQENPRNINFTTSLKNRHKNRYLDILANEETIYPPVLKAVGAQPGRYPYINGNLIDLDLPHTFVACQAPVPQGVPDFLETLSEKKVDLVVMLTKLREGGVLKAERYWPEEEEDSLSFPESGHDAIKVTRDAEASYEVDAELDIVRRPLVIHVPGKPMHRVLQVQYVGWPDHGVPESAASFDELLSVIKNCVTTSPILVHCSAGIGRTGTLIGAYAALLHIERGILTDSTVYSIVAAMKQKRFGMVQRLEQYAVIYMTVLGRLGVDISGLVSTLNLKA

TbPTP1 [2] = biological target: T1, TbPTP1; assay: malachite green phosphate release, Lineweaver-Burk; format: biochemical; details: 50 mM Hepes, 150 mM NaCl, pH 7.0, 37 °C
TbPTP1 [3] = biological target: T1, TbPTP1; details: pNPP or pEGFR peptide as substrate

CCc1oc2cc(S(=O)(=O)Nc3ccc(S(=O)(=O)Nc4nccs4)cc3)ccc2c1C(=O)c1cc(Br)c(O)c(Br)c1 [BZ3, 3-(3,5-Dibromo-4-hydroxy-benzoyl)-2-ethyl-benzofuran-6-sulfonicacid-(4-(thiazol-2-ylsulfamyl)-phenyl)-amide]
inhibition at 10 µM (TbPTP1 [1]): > 50%

N[C@@H](COP(=O)(O)O)C(=O)O [pSer]
Km (TbPTP1 [2]): phospho-Tyr (pTyr), and phospho-Ser (pSer)

[O]=[V]([OH])([OH])[OH] [sodium orthovanadate]
% inhibition at 1 mM (TbPTP1 [3]): 90%
